Test results taken from US4276297A, “Pyridylaminotriazole therapeutic agents” (Pfizer Inc., priority 1979, dated 1981).

Tests used:
gastric acid secretion = assay: Inhibition of pentagastrin-induced gastric acid secretion in fasted Heidenhain pouch dogs; type: in vivo; details: intravenous; for inhibition in vivo at 1 mg/kg / inhibition in vivo at 5 mg/kg / inhibition in vivo at 10 mg/kg: Canis lupus familiaris, 1.5 h, 90 minutes after start of pentagastrin infusion, lowest acid output after drug vs mean acid output immediately prior, read-out: Acid Antisecretory Activity (% Inhibition)
Method: The activity of the compounds of the present invention, as anti-ulcer agents, is determined by their ability to pass at least one of the following two standard biological and/or pharmacological tests, viz., (1) measuring their ability to antagonise those particular actions of histamine which are not blocked by an antihistamine such as mepyramine, i.e., a measure of their ability to block certain histamine H2 -receptor sites; and (2) measuring their ability to inhibit gastric acid secretion in the stomachs of Heidenhain pouch dogs that had previously been treated with pentagastrin in order to stimulate the secretion of said acid (in their stomachs) for these particular purposes.
The following 3-amino-5-(4-pyridyl)-1,2,4-triazole final products of Examples I-V, VII-XII, XIV-XVI, XVIII-XX, XXII-XXIII, XXV-XXVI, XXVIII and XXXII, respectively, were tested for antiulcer activity in terms of their ability to inhibit gastric acid secretion in groups of fasted Heidenhain pouch dogs. No anesthetic was used in this study. The animals were first administered pentagastrin in order to stimulate acid output in their stomachs by the continuous infusion of said drug into a superified leg vein at doses earlier determined to stimulate near maximal acid output from the gastric pouch. Gastric juice was then collected at 30-minute intervals following the start of a pentagastrin infusion amd measured to the nearest one-tenth of a […] (0.1 ml.). Ten collections were taken for each dog during an experiment. Acid concentration was then determined by titrating 1.0 ml. of gastric juice to a pH value of pH 7.4 with 0.1 N aqueous sodium hydroxide, using an Autoburette and a glass electrode pH meter (Radiometer) for these purposes. The animals were then administered the test compounds at 10, 5.0 and 1.0 mg./kg., respectively, or the control vehicle alone, via the intravenous route of administration,at 90 minutes following the start of the pentagastrin infusion. Gastric antisecretory effects were thereafter calculated by comparing the lowest acid output after drug administration with the mean acid output immediately prior to same and the results obtained in this manner are reported in the following table, where the entries given for each individual compound are expressed in terms of percent inhibition (%) at the dose level indicated: […]

[1] = Signs of toxic side effects in Heidenhain pouch dogs after intravenous dosing; type: in vivo; details: 1.0 mg./kg. to 10 mg./kg.
From the text: As previously indicated, the 3-amino-5-(4-pyridyl)-1,2,4-triazole compounds of this invention are all readily adapted to therapeutic use as histamine H2 -receptor inhibitors for the control of peptic ulcers, especially in view of their ability to inhibit the secretion of gastric acid in the body to a statistically significant degree. […] The other compounds of this invention also cause similar results. Furthermore, all the herein described compounds of this invention can be administered orally, for the present purposes at hand, without causing any significant untoward pharmacological side reactions to occur in the subject to whom they are so administered. In general, these compounds are ordinarily administered at dosage levels ranging from about 0.5 mg. to about 50 mg. per kg. of body weight per day, although variations will necessarily occur depending upon the condition and individual response of the subject being treated and the particular type of pharmaceutical formulation chosen.

## Nc1cc(-c2nc(N)n[nH]2)ccn1 [Example XVIII, 3-amino-5-(2-aminopyridyl)-1,2,4-triazole monohydrate]
Gastric acid secretion
  inhibition in vivo at 1 mg/kg: 30%
  inhibition in vivo at 5 mg/kg: 86%
  inhibition in vivo at 10 mg/kg: 94%

## Nc1n[nH]c(-c2ccnc(NCCO)c2)n1 [Example V, 3-amino-5-{2-[N-mono(β-hydroxyethyl)amino]-4-pyridyl}-1,a,4-triazole]
Gastric acid secretion
  inhibition in vivo at 1 mg/kg: 23%
  inhibition in vivo at 10 mg/kg: 34%

## CCNc1cc(-c2nc(NC)n[nH]2)ccn1 [Example XXVI, 3-(N-monomethylamino)-5-[2-(N-monoethylamino)-4-pyridyl]-1,2,4-triazole]
Gastric acid secretion
  inhibition in vivo at 1 mg/kg: 32%
  inhibition in vivo at 5 mg/kg: 64%

## Cc1ccc(CNc2cc(-c3nc(N)n[nH]3)ccn2)cc1C [Example XXVIII, 3-amino-5-{2-[N-mono(3',4'-dimethylbenzyl)amino]-4-pyridyl}-1,2,4-triazole]
Gastric acid secretion
  inhibition in vivo at 5 mg/kg: 49%

## CCNc1cc(-c2nc(NCC)n[nH]2)ccn1 [Example XI, 3-(monoethylamino)-5-[2-(N-monoethylamino)-4-pyridyl]-1,2,4-triazole]
Gastric acid secretion
  inhibition in vivo at 1 mg/kg: 38%

## Nc1n[nH]c(-c2ccnc(NCC(F)(F)F)c2)n1 [Example XXV, 3-amino-5-{2-[N-mono(2,2,2-trifluoroethyl)amino]-4-pyridyl}-1,2,4-triazole]
Gastric acid secretion
  inhibition in vivo at 1 mg/kg: 10%

## COCCNc1cc(-c2nc(N)n[nH]2)ccn1 [Example VII, 3-amino-5-{2-[N-mono(β-methoxyethyl)amino]-4-pyridyl}-1,2,4-triazole]
Gastric acid secretion
  inhibition in vivo at 1 mg/kg: 11%

## Nc1n[nH]c(-c2ccnc(NCc3ccccc3)c2)n1 [Example XIV, 3-amino-5-[2-(N-monobenzylamino)-4-pyridyl]-1,2,4-triazole]
Gastric acid secretion
  inhibition in vivo at 1 mg/kg: 21%
  inhibition in vivo at 10 mg/kg: 72%

## CN(Cc1ccccc1)c1cc(-c2nc(N)n[nH]2)ccn1 [Example XXXII, 3-amino-5-[2-(N-methyl-N-benzylamino)-4-pyridyl]-1,2,4-triazole]
Gastric acid secretion
  inhibition in vivo at 10 mg/kg: 25%

## Nc1n[nH]c(-c2ccnc(NCc3ccc(Cl)cc3)c2)n1 [Example XV, 3-amino-5-{2-[N-mono(p-chlorobenzyl)amino]-4-pyridyl}-1,2,4-triazole]
Gastric acid secretion
  inhibition in vivo at 1 mg/kg: 21%
  inhibition in vivo at 10 mg/kg: 62%

## Nc1n[nH]c(-c2ccnc(NCCc3ccccc3)c2)n1 [Example XII, 3-amino-5-{2-[N-mono(β-phenylethyl)amino]-4-pyridyl}-1,2,4-triazole]
Gastric acid secretion
  inhibition in vivo at 1 mg/kg: 18%
  inhibition in vivo at 10 mg/kg: 50%

## CC(C)Nc1cc(-c2nc(N)n[nH]2)ccn1 [Example XXIII, 3-amino-5-[2-(N-monoisopropylamino)-4-pyridyl]-1,2,4-triazole]
Gastric acid secretion
  inhibition in vivo at 1 mg/kg: 35%
  inhibition in vivo at 5 mg/kg: 52%

## CN(C)c1cc(-c2nc(N)n[nH]2)ccn1 [Example VIII, 3-amino-5-[2-(N,N-dimethylamino)-4-pyridyl]-1,2,4-triazole]
Gastric acid secretion
  inhibition in vivo at 1 mg/kg: 48%
  inhibition in vivo at 5 mg/kg: 80%
  inhibition in vivo at 10 mg/kg: 96%

## CCN(C)c1cc(-c2nc(N)n[nH]2)ccn1 [Example IX, 3-amino-5-[2-(N-methyl-N-ethylamino)-4-pyridyl]-1,2,4-triazole]
Gastric acid secretion
  inhibition in vivo at 1 mg/kg: 53%

## CNc1cc(-c2nc(N)n[nH]2)ccn1 [Example XIX, 3-amino-5-[2-(N-monomethylamino)-4-pyridyl]-1,2,4-triazole]
Gastric acid secretion
  inhibition in vivo at 1 mg/kg: 50%

## CCCCCCNc1cc(-c2nc(N)n[nH]2)ccn1 [Example II, 3-amino-5-{2-[N-mono(n-hexyl)amino]-4-pyridyl}-1,2,4-triazole]
Gastric acid secretion
  inhibition in vivo at 1 mg/kg: 0%
  inhibition in vivo at 10 mg/kg: 40%

## CCCNc1cc(-c2nc(N)n[nH]2)ccn1 [Example I, 3-amino-5-{2-[N-mono(n-propyl)amino]-4-pyridyl}-1,2,4-triazole]
Gastric acid secretion
  inhibition in vivo at 1 mg/kg: 33%
  inhibition in vivo at 5 mg/kg: 64%

## CCNc1cc(-c2nc(N)n[nH]2)ccn1 [Example XX, 3-amino-5-[2-(N-monoethylamino)-4-pyridyl]-1,2,4-triazole]
[1]
  signs of toxic side effects: without showing any substantial signs of toxic side effects
Gastric acid secretion
  inhibition in vivo at 1 mg/kg: 51%
  inhibition in vivo at 5 mg/kg: 89%
  inhibition in vivo at 10 mg/kg: 93%
Gastric acid secretion; 1.0 mg./kg. to 10 mg./kg., Heidenhain pouch dogs
  inhibit the pentagastrin-induced secretion of gastric acid (in words): consistently inhibit the pentagastrin-induced secretion of gastric acid from stomachs of Heidenhain pouch dogs to a significantly high degree

## CCN(CC)c1cc(-c2nc(N)n[nH]2)ccn1 [Example X, 3-amino-5-[2-(N,N-diethylamino)-4-pyridyl]-1,2,4-triazole]
Gastric acid secretion
  inhibition in vivo at 5 mg/kg: 68%

## CCCCCCCCCCNc1cc(-c2nc(N)n[nH]2)ccn1 [Example III, 3-amino-5-{2-[N-mono(n-decyl)amino]-4-pyridyl}-1,2,4-triazole]
Gastric acid secretion
  inhibition in vivo at 10 mg/kg: 14%

## C=CCNc1cc(-c2nc(N)n[nH]2)ccn1 [Example IV]
Gastric acid secretion
  inhibition in vivo at 1 mg/kg: 31%

## CCCCNc1cc(-c2nc(N)n[nH]2)ccn1 [Example XXII, 3-amino-5-{2-[N-mono(n-butyl)amino]-4-pyridyl}-1,2,4-triazole]
Gastric acid secretion
  inhibition in vivo at 1 mg/kg: 29%

## Cc1ccc(CNc2cc(-c3nc(N)n[nH]3)ccn2)cc1 [Example XVI]
Gastric acid secretion
  inhibition in vivo at 5 mg/kg: 33%
